Laboratory results as given in paper PMC8041433 (Environmental Health Perspectives, 2021).
“And” between values parts separate entries of the source, which are not always exact repeats. Equal values may be shown once. Read-outs that look alike come from different tables or passages of the source.

Key:
[1] = target: AChE in neural stem cells (Homo sapiens, UniProt P22303); experiment: cell-based
recombinant human AChE [2] = target: T1, recombinant human AChE (Homo sapiens, UniProt P22303); on IR or R: key: Reversible (R); Irreversible (IR); ND, not detected in enzyme-based AChE inhibition assay from current study
recombinant human AChE [3] = target: T1, recombinant human AChE; experiment: biochemical
AChE in SH-SY5Y cells = AChE in SH-SY5Y cells (Homo sapiens, UniProt P22303); experiment: cell-based
recombinant human AChE [4] = target: T1, recombinant human AChE; experiment: biochemical; assay type: biochemical; settings: for AC50: AC50 (uM)
recombinant human AChE [5] = target: T1, recombinant human AChE; experiment: biochemical; remark: listed apart in the source
[6] = target: AChE in neural stem cell spheroids (Homo sapiens, UniProt P22303); experiment: cell-based; settings: for IC50: potency (IC50)
[7] = target: AChE in SH-SY5Y spheroids (Homo sapiens, UniProt P22303); experiment: cell-based; settings: potency (IC50)
recombinant human AChE [8] = target: T1, recombinant human AChE; experiment: biochemical; remark: listed apart in the source
[9] = potency (IC50), Enzyme with microsomes
[10] = Neural stem cell spheroid (24 h)
[11] = Neural stem cell spheroid (48 h)
[12] = potency (IC50), SH-SY5Y cells monolayer

T1 sequence (P22303 32-614): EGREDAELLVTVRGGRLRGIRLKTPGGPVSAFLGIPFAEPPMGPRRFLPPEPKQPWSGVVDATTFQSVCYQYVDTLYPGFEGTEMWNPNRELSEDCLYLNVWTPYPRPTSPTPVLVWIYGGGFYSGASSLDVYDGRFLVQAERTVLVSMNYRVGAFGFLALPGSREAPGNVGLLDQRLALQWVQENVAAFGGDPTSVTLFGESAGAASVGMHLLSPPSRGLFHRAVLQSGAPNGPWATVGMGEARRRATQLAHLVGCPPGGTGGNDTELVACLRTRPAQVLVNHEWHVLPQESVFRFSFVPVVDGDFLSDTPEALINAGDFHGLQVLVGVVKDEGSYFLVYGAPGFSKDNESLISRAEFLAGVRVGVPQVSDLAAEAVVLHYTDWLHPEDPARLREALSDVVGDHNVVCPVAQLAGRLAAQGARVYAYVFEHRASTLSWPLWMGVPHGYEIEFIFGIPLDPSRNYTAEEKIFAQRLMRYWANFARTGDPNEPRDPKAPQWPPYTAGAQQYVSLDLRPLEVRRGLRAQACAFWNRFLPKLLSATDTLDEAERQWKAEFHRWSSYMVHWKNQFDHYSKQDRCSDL
AChE in neural stem cell spheroids, sequence (P22303 32-614): as above
AChE in SH-SY5Y cells, sequence (P22303 32-614): as above
AChE in SH-SY5Y spheroids, sequence (P22303 32-614): as above
AChE in neural stem cells, sequence (P22303 32-614): as above

| Compound | IC50 [1] [µM] | CC-v2 (curve classes) (recombinant human AChE [2]) | Efficacy (recombinant human AChE [2]) | IC50 (recombinant human AChE [3]; [9]) [µM] | IC50 (AChE in SH-SY5Y cells; IC50 (uM)) | AC50 (recombinant human AChE [4]) | CC-v2 (curve classes) (recombinant human AChE [5]) | Efficacy (recombinant human AChE [5]) | IC50 (recombinant human AChE [5]; IC50 (uM)) | IC50 [6, 10] [µM] | IC50 [6, 11] [µM] | IC50 ([7]; SH-SY5Y spheroids (24 h)) [µM] | IC50 ([7]; SH-SY5Y spheroids (48 h)) [µM] | CC-v2 (curve classes) (AChE in SH-SY5Y cells) | IC50 (AChE in SH-SY5Y cells; [12]) [µM] | IC50 (recombinant human AChE [5]; potency (IC50), Enzyme) [µM] | IC50 (recombinant human AChE [8]) [µM] | IR or R (recombinant human AChE [4]) | also measured |
| --- | --- | --- | --- | --- | --- | --- | --- | --- | --- | --- | --- | --- | --- | --- | --- | --- | --- | --- | --- |
| CCOP(=S)(OCC)SCSc1ccc(Cl)cc1 [Carbophenothion] | 2.96 | 4 | -18.784 | 3.74 | 89.4 µM | 19.3 µM and 17.2 µM and 21.7 µM | -2.2 | -28.575 | 89.4 µM | 2.19 | 3.31 | 28.1 | 19.6 | – | – | – | – | – | potency (IC50), SH-SY5Y cells monolayer (AChE in SH-SY5Y cells): Inactive; AChE inhibition (result in words) (recombinant human AChE [5]): did not show effects; potency (IC50), Enzyme (recombinant human AChE [5]): Inactive; potency (IC50), Enzyme-based assay with heat-inactivated microsomes (recombinant human AChE [8]): Inactive |
| CNC(=O)O/N=C(\SC)C(=O)N(C)C [Oxamyl] | 3.39 ± 0.22 | -1.1 | – | 2.16 ± 0.36 | 1.55 µM and 1.42 µM and 1.23 µM | – | -1.1 | – | – | 0.96 ± 0.38 | 1.85 | 2.28 ± 0.63 | 3.05 ± 0.52 | -1.1 | 2.5 ± 0.28 | 1.74 ± 0.48 | 2.81 ± 0.32 | – | AC50 (recombinant human AChE [4]; activity_5): 3.95 µM and 4.44 µM and 3.52 µM; AC50 (recombinant human AChE [4]; activity_10): 2.8 µM and 3.52 µM and 2.5 µM; AC50 (recombinant human AChE [4]; activity_60): 0.703 µM and 1.57 µM and 1.25 µM |
| CCN1CCCC1CNC(=O)c1cc(S(=O)(=O)CC)c(N)cc1OC (stereo not shown) [Amisulpride, reference compound] | 17.2 | -2.4 | -30.734 | 21.8 | 21.9 µM and 34.7 µM and 38.9 µM | 17.2 µM (2×) and 6.85 µM and 19.3 µM (2×) and 3.43 µM and 15.3 µM and 21.7 µM | -2.2 | -62.971 | 15.5 µM | – | 12.1 | 11.1 | 28.6 | – | 30.7 | 14.3 | 24.3 | R | IC50 (recombinant human AChE [3]; IC50 (uM)): 38.9 µM; potency (IC50), Neural stem cell spheroid (24 h) [6]: Inactive |
| CCCCSP(=O)(SCCCC)SCCCC [Tribufos] | 39.8 | -1.1 | – | 3.66 | 28.3 µM and 31 µM and 17.8 µM and 27.6 µM and 15.9 µM and 34.8 µM | 88.5 µM | -2.2 and 4 | – | – | 31.4 | 14 | 12.2 | 12 | -2.2 and -1.2 | 15.3 | 35.3 | 25.1 ± 2.88 | – | IC50 (recombinant human AChE [3]; IC50 (uM)): 5.02 µM and 5.51 µM; IC50 (recombinant human AChE [5]; read-out: IC50): 35.6 µM |
| CNC(=O)ON=C(C)SC [Methomyl] | 7.99 ± 1.49 | -1.1 | -96.277 | 3.18 ± 0.66 | 1.59 µM and 2 µM | – | -1.1 | -92.651 | – | 6.27 ± 2.23 | 9.75 | 6.41 ± 8.14 | 3.81 ± 0.25 | -1.1 | 4.11 ± 0.27 | 1.83 ± 0.12 | 3.83 ± 0.53 | R | – |
| CNC(=O)Oc1cc(C)cc(C(C)C)c1 [Promecarb] | 1.35 ± 0.18 | -1.1 | -98.92 | 0.68 ± 0.11 | 0.633 µM and 0.564 µM | – | -1.1 | -99.272 | – | 0.93 ± 0.07 | 0.66 | 1.38 ± 1.23 | 0.68 ± 0.09 | -1.1 | 0.88 ± 0.1 | 0.48 ± 0.12 | 0.61 ± 0.08 | R | AC50 (recombinant human AChE [4]; activity_5): 1.98 µM and 1.25 µM; AC50 (recombinant human AChE [4]; activity_10): 0.885 µM and 1.77 µM; AC50 (recombinant human AChE [4]; activity_60): 0.703 µM and 0.498 µM and 1.11 µM |
| Cc1ccc2c(n1)Oc1ccc(C(C)C(=O)OCC(=O)N(C)C)cc1C2 (stereo not shown) [Mepranoprofen arbamel, reference compound] | 12.7 ± 0.85 | 4 | 0 | 37.3 ± 5.13 | 15.5 µM and 12.3 µM and 27.5 µM | 12.2 µM and 13.7 µM and 19.3 µM (3×) and 7.69 µM and 17.2 µM and 9.68 µM | -2.2 and -1.1 | – | 24.5 µM and 15.5 µM | 12.5 ± 3.49 | 11.3 | 7.46 ± 3.5 | 18 ± 2.29 | -2.1 and -1.1 | 19.3 | 15.4 ± 1.77 | 24.3 | – | – |
